Source: article PMC7948737, “Structures and mechanism of human glycosyltransferase β1,3-N-acetylglucosaminyltransferase 2 (B3GNT2), an important player in immune homeostasis” (The Journal of Biological Chemistry, 2020)

Key:
[1] = molecular target: T1, β1,3-N-acetylglucosaminyltransferase 2 (B3GNT2) (Homo sapiens, UniProt Q9NY97); test: crystal structure ([…] Å, soak) and SPR steady-state affinity; assay type: binding
T1 construct: luminal domain, Lys45-Cys397 (crystal)
T1 sequence (Q9NY97 45-397): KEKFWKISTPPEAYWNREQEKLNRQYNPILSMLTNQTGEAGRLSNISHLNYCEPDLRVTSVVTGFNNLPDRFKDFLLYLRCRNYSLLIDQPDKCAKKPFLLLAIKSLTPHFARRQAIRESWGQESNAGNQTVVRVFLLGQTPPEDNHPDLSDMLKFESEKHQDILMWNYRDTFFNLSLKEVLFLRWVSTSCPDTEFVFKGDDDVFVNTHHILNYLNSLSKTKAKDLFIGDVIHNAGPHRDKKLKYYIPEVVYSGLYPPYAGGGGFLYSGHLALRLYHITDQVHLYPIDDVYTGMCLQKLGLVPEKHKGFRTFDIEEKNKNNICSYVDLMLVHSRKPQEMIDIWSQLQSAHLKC

[2] = molecular target: T1, β1,3-N-acetylglucosaminyltransferase 2 (B3GNT2); test: crystal structure ([…] Å) and SPR steady-state affinity; assay type: binding
[3] = molecular target: human B3GNT2 luminal domain (construct of the analytical size exclusion chromatography, limits not told) (human); test: SEC; analytical size exclusion chromatography, Superdex 200 10/300, 20 mM Hepes-NaOH pH 7.5 with 150 mM NaCl (buffer C) or 250 mM NaCl, 50 mM imidazole, 1 mM MgCl2, 0.5 mM DTT (buffer D); Bio-Rad molecular weight standards
[4] = molecular target: T2, β1,3-N-acetylglucosaminyltransferase 2 (B3GNT2) (Homo sapiens, UniProt Q9NY97); test: crystal structure ([…] Å, soak); binary-complex dissociation constant from UDP-Glo kinetics; assay type: biochemical
T2 construct: luminal domain, Lys45-Cys397 (crystal); Lys29-Cys397 (kinetics)
T2 sequence (Q9NY97 29-397): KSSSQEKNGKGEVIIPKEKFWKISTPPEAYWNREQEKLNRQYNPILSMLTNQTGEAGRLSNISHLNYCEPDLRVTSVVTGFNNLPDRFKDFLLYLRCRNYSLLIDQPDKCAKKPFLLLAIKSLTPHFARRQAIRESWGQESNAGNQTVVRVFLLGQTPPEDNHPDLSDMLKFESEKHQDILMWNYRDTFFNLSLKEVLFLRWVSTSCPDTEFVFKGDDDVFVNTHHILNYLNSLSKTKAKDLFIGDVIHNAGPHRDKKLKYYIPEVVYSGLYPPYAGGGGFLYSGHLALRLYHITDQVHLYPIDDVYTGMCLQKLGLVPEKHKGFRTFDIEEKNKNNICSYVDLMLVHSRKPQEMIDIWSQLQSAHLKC

[5] = molecular target: the molecule itself; test: crystal structure; sitting/hanging-drop vapor diffusion at 4 °C, 24% PEG1500, 20% glycerol; apo, soaked or co-crystallised with UDP, UDP-GlcNAc, LacNAc; dimer related by crystallographic symmetry

CC(=O)N[C@H]1[C@@H](OP(=O)(O)OP(=O)(O)OC[C@H]2O[C@@H](n3ccc(=O)[nH]c3=O)[C@H](O)[C@@H]2O)O[C@H](CO)[C@@H](O)[C@@H]1O [UDP-GlcNAc]
Kd [1]: ~140 µM

O=c1ccn([C@@H]2O[C@H](COP(=O)(O)OP(=O)(O)O)[C@@H](O)[C@H]2O)c(=O)[nH]1 [UDP]
Kd [2]: ~260 µM

human B3GNT2 luminal domain (construct of the analytical size exclusion chromatography, limits not told) (domain or fragment)
stoichiometry N [3]: 2

CC(=O)N[C@H]1C(O)O[C@H](CO)[C@@H](O[C@@H]2O[C@H](CO)[C@H](O)[C@H](O)[C@H]2O)[C@@H]1O (stereo partly drawn) [LacNAc]
Kd [4]: 8990 ± 1750 µM

B1: human B3GNT2 luminal domain (Lys45–Cys397) (domain or fragment, UniProt Q9NY97 45-397, looked up)
chain: KEKFWKISTPPEAYWNREQEKLNRQYNPILSMLTNQTGEAGRLSNISHLNYCEPDLRVTSVVTGFNNLPDRFKDFLLYLRCRNYSLLIDQPDKCAKKPFLLLAIKSLTPHFARRQAIRESWGQESNAGNQTVVRVFLLGQTPPEDNHPDLSDMLKFESEKHQDILMWNYRDTFFNLSLKEVLFLRWVSTSCPDTEFVFKGDDDVFVNTHHILNYLNSLSKTKAKDLFIGDVIHNAGPHRDKKLKYYIPEVVYSGLYPPYAGGGGFLYSGHLALRLYHITDQVHLYPIDDVYTGMCLQKLGLVPEKHKGFRTFDIEEKNKNNICSYVDLMLVHSRKPQEMIDIWSQLQSAHLKC
modifications: N-glycans assigned at Asn127, Asn173 and Asn219
notes: human B3GNT2 (β-1,3-N-acetylglucosaminyltransferase 2), UniProt Q9NY97, luminal domain, residues Lys45–Cys397; Expressed with an N-terminal gp64 secretion signal peptide; 8×His tag cleaved by TEV protease; Used for all structures except the iodide derivative; also called B3GNT2 Lys45-Cys397; B3GNT2_apo; source: sf9 cells (baculovirus), secreted into medium, purified (Ni-NTA, size exclusion …)
binding result [5]: binds

B2: human B3GNT2 luminal domain (Ser31–Cys397) (domain or fragment, UniProt Q9NY97 31-397, looked up)
chain: SSQEKNGKGEVIIPKEKFWKISTPPEAYWNREQEKLNRQYNPILSMLTNQTGEAGRLSNISHLNYCEPDLRVTSVVTGFNNLPDRFKDFLLYLRCRNYSLLIDQPDKCAKKPFLLLAIKSLTPHFARRQAIRESWGQESNAGNQTVVRVFLLGQTPPEDNHPDLSDMLKFESEKHQDILMWNYRDTFFNLSLKEVLFLRWVSTSCPDTEFVFKGDDDVFVNTHHILNYLNSLSKTKAKDLFIGDVIHNAGPHRDKKLKYYIPEVVYSGLYPPYAGGGGFLYSGHLALRLYHITDQVHLYPIDDVYTGMCLQKLGLVPEKHKGFRTFDIEEKNKNNICSYVDLMLVHSRKPQEMIDIWSQLQSAHLKC
modifications: N-glycans assigned at Asn127, Asn173 and Asn219
notes: human B3GNT2 (β-1,3-N-acetylglucosaminyltransferase 2), UniProt Q9NY97, luminal domain, residues Ser31–Cys397; Expressed with an N-terminal gp64 secretion signal peptide; 8×His tag cleaved by TEV protease; Used for the iodide derivative structure (SAD phasing, 2.50 Å); also called B3GNT2 Ser31-Cys397; iodide derivative; source: sf9 cells (baculovirus), secreted into medium, purified (Ni-NTA, size …)
binding result [5]: binds
